Measurements published in patent US20250257055A1, “TERTIARY AMIDE DERIVATIVES SUBSTITUTED WITH 4-MEMBERED RING STRUCTURE” (Sumitomo Pharma Co., Ltd., priority 2024, published 2025).
Values after ≈ are worked out from the molar mass of the structure shown. Where two headings read alike, the source gives them in different places.

Tests used:
G-401 cells = assay: Cell proliferation inhibition experiment using G-401 cells; type: cell-based; details: Homo sapiens, 72 h, cultured for 3 days, CellTiter-Glo
Experimental: G-401 cells (derived from malignant rhabdoid tumor) were obtained from the American Type Culture Collection (ATCC). G-401 cells were cultured in McCoy's 5A medium containing 10% fetal bovine serum and 1% penicillin/streptomycin under conditions of 37° C. and 5% CO2.
(§1) 500 cells per well were seeded in a 384-well plate. One day after seeding, Examples 1 to 35 were added so that the final concentration of DMSO was 0.1%, and the cells were cultured for 3 days. After the culture was completed, the cell viability was measured using CellTiter-Glo Luminescent Cell Viability Assay (Promega, G7570).

Kuramochi cells = assay: Cell proliferation inhibition experiment using Kuramochi cells; type: cell-based; details: 144 h, cultured for 6 days, CellTiter-Glo
Experimental: Kuramochi cells (derived from ovarian cancer) were obtained from JCRB (Japanese Collection of Research Bioresources) cell bank. Kuramochi cells were cultured in RPMI-1640 medium containing 10% fetal bovine serum and 1% penicillin/streptomycin under conditions of 37° C. and 5% CO2.
as §1, with “Examples 3, 7, 9, 10, 11, 20, 23” for “Examples 1”, “to 25, and 30 to 34” for “to 35”, “for 6” for “for 3”

[1] = Membrane permeability test (PAMPA); type: in vitro ADME
Experimental: The membrane permeability of the test compound was tested by parallel artificial membrane permeability assay (PAMPA) as follows. 200 μL of System solution (pION Inc.) containing the test compound and 4 μL of GIT Lipid-0 (pION Inc.) were added to the donor plate. 200 μL of Acceptor Sink Buffer (pION Inc.) was added to the acceptor plate. Both plates were overlapped and incubated at 37° C. for 4 hours, after which the UV of the solutions on the acceptor side and donor side was measured using a UV plate reader (190-500 nm). Compounds with poor UV absorption were measured using LC-MS. The permeability coefficient Pe (10^−6 cm/sec) of the drug was calculated using the following equation.

recombinant p300 = recombinant p300 (Homo sapiens (Human), UniProt Q09472); assay: HAT activity inhibition experiment (SensoLyte HAT(p300) Assay Kit); type: biochemical; details: recombinant p300, histone H3 peptide, acetyl CoA
Chain of recombinant p300 (Q09472 whole entry): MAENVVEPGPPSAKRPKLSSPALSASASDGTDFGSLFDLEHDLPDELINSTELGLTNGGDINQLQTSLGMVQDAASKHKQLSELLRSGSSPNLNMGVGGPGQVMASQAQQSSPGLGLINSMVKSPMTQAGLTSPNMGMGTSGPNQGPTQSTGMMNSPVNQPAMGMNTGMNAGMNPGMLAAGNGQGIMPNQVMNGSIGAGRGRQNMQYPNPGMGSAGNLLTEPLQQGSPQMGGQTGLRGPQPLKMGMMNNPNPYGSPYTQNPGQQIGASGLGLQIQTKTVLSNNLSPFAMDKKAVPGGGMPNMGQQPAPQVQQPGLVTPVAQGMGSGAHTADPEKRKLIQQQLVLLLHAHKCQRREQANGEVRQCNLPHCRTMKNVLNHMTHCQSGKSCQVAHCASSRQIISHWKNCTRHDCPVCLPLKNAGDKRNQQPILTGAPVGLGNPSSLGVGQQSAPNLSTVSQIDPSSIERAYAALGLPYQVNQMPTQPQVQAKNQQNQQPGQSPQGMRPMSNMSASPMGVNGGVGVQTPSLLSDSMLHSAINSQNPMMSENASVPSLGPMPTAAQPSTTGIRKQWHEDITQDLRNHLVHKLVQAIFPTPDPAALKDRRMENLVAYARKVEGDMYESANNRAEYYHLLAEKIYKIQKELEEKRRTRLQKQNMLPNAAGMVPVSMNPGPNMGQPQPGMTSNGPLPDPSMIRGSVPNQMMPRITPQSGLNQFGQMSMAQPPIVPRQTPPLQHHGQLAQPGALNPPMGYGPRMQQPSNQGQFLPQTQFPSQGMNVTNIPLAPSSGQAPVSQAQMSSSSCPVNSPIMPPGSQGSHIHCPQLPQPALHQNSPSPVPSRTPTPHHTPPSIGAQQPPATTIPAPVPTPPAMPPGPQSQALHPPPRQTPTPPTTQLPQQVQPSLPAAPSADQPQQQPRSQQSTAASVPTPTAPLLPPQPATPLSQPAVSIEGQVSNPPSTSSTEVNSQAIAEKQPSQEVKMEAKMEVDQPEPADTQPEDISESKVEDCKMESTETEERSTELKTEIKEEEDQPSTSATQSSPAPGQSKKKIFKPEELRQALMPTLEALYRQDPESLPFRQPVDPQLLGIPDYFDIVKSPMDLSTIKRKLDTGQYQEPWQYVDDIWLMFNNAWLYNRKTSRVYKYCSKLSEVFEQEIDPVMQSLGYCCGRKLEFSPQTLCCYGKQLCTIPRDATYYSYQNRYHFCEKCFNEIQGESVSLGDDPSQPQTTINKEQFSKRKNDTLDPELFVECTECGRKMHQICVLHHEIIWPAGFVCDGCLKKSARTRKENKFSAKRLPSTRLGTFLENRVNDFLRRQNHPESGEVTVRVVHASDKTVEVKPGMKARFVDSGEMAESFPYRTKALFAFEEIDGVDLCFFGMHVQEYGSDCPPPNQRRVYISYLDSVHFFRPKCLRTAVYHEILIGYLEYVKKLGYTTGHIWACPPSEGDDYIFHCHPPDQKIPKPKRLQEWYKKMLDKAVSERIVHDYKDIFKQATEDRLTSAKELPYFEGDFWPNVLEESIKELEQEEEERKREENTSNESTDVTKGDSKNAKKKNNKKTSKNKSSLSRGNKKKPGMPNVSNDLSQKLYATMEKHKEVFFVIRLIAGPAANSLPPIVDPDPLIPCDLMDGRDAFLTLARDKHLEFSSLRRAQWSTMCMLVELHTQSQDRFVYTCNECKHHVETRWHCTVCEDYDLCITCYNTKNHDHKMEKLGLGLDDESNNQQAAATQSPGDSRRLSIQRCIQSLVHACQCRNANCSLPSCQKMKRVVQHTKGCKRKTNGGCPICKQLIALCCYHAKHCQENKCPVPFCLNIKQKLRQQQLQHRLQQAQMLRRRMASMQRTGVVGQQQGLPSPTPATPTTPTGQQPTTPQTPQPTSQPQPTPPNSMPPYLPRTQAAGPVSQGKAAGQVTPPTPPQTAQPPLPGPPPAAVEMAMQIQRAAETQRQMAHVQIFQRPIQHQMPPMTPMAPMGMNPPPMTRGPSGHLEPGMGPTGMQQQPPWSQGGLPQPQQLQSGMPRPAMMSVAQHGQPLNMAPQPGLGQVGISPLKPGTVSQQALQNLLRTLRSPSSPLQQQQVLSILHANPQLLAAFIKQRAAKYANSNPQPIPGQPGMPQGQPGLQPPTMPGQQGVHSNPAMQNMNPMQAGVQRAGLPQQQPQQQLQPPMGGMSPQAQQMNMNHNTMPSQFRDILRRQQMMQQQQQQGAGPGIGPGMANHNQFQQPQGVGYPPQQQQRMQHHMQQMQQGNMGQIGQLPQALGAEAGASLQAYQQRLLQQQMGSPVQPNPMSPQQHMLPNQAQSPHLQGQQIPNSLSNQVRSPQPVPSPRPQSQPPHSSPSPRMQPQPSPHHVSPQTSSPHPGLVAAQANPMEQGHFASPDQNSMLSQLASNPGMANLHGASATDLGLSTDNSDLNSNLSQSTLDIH
Experimental: The HAT activity inhibitory ability of HAT inhibitors was evaluated using SensoLyte HAT(p300) Assay Kit (ANASPEC, AS-72172). Specifically, 7.5 μL of the compound of Examples […] diluted with assay buffer was added to 7.5 μL of recombinant p300 solution diluted 10 times with assay buffer, and the mixture was incubated at room temperature for 10 minutes. 7.5 μL of acetyl CoA solution diluted 10 times with assay buffer and 15 μL of histone H3 peptide diluted 10 times with assay buffer were added thereto, and the mixture was incubated at 37° C. for 30 minutes. 37.5 μL of Stop Solution was added to stop the reaction. 75 μL of p300 Developer solution diluted 50 times with assay buffer was added, and the mixture was incubated at room temperature for 30 minutes under light-shielded conditions. The fluorescence at 513 nm when irradiated with 389 nm excitation light was measured using a multiplate reader.

Solubility test = type: physicochemical; details: aqueous buffer, thermodynamic from solid, 5° C., overnight
Experimental: The solubility was measured for Examples 7, 10, 20, 23, 24, and 30 to 34, Comparative Example 1, and Comparative Example 2. The test compound was added to 10 mmol/L glycine buffer (pH 2.0) and 10 mmol/L citrate buffer (pH 3.0), and the mixture was stored in a thermostatic chamber at 5° C. After standing overnight, the mixture was filtered through a membrane filter, and the concentration of the filtrate was measured by HPLC.

[2] = Pharmacokinetic study in mice; type: in vivo; details: for AUC / clearance / half-life / Vd / Cmax: female, BALB/c (BALB/cAnN CrlCrlj), mouse, plasma; for Vd: read-out: Vdss
Experimental: The test compound was administered to 7-week-old female BALB/c (BALB/cAnN CrlCrlj) mice intravenously (dosage: 1 mg/kg) in a 50% PEG solution (0.01 mol/L HCl) or orally (dosage: 10 mg/kg) in a 0.5% methylcellulose aqueous solution, and blood was collected at the following times:
Intravenous administration: 5 min, 15 min, 30 min, 1 hr, 2 hr, 4 hr, 6 hr, and 24 hr after administration
Oral administration: 15 min, 30 min, 1 hr, 2 hr, 4 hr, 6 hr, and 24 hr after administration
The collected blood was centrifuged at 3000 rpm×10 min using a refrigerated centrifuge set at 4° C., and the obtained plasma was measured by LC-MS. A calibration curve was prepared from the value (peak ratio) obtained by dividing the peak area of the test substance by the peak area of the internal standard substance in MS and the concentration of the plasma calibration curve sample. The concentration in the sample was calculated from the peak ratio and the calibration curve of each sample.

[3] = pH 5.0, 37° C., read-out: pH 5.0 Pe
[4] = pH 7.4, 37° C., read-out: pH 7.4 Pe
[5] = 10 mmol/L citrate buffer (pH 3.0), read-out: Solubility in pH 3.0 buffer
[6] = 10 mmol/L glycine buffer (pH 2.0), read-out: Solubility in pH 2.0 buffer

Row | Structure (SMILES) | Papp at 4 h [1, 3] | Papp at 4 h [1, 4] | IC50 (recombinant p300) | solubility (Solubility test; [5]) | solubility (Solubility test; [6]) | AUC ([2]; intravenous, 1 mg/kg) | clearance ([2]; intravenous, 1 mg/kg) | half-life ([2]; intravenous, 1 mg/kg) | Vd ([2]; intravenous, 1 mg/kg) | AUC ([2]; oral, 10 mg/kg) | Cmax ([2]; oral, 10 mg/kg) | BA ([2]; oral, 10 mg/kg) | IC50 (G-401 cells) | IC50 (Kuramochi cells)
1 | O=C1N[C@]2(C[C@@H](F)c3cc(-c4cnn(C5CN(C6COC6)C5)c4)ccc32)C(=O)N1CC(=O)N(Cc1ccc(F)cc1)C1(C(F)(F)F)CC(F)(F)C1 [Example 4, N-[3,3-difluoro-1-(trifluoromethyl)cyclobutyl]-2-[(1′S,3′R)-3′-fluoro-5′-{1-[1-(oxetan-3-yl)azetidin-3-yl]-1H-pyrazol-4-yl}-2,5-dioxo-2′,3′-dihydrospiro[imidazolidine-4,1′-inden]-1-yl]-N-[(4-fluorophenyl)methyl]acetamide] | 25.7 ×10⁻⁶ cm/s | 31.2 ×10⁻⁶ cm/s | 0.5 nM | – | – | 2100 ng·h/mL | 6.8 mL/min/kg | 2.3 h | 1.2 L/kg | 28700 ng·h/mL | 8300 ng/mL | 136.3% | 43 nM | –
2 | CCn1cc(-c2ccc3c(c2)[C@H](F)C[C@]32NC(=O)N(CC(=O)N(Cc3ccc(F)cc3)C3(C(F)(F)F)CN(C)C3)C2=O)cn1 [Example 30, 2-[(1′S,3′R)-5′-(1-ethyl-1H-pyrazol-4-yl)-3′-fluoro-2,5-dioxo-2′,3′-dihydrospiro[imidazolidine-4,1′-inden]-1-yl]-N-[(4-fluorophenyl)methyl]-N-[1-methyl-3-(trifluoromethyl)azetidin-3-yl]acetamide] | 30.6 ×10⁻⁶ cm/s | 35 ×10⁻⁶ cm/s | 1.5 nM | 1700 µg/mL (≈ 2.76 mM) | 8800 µg/mL (≈ 14.3 mM) | – | – | – | – | – | – | – | 2 nM | 10 nM
3 | CN1CC(N(Cc2ccc(F)cn2)C(=O)CN2C(=O)N[C@]3(C[C@@H](F)c4cc(-c5cnn(C(C)(C)C#N)c5)ccc43)C2=O)(C(F)(F)F)C1 [Example 26, 2-{(1′S,3′R)-5′-[1-(2-cyanopropan-2-yl)-1H-pyrazol-4-yl]-3′-fluoro-2,5-dioxo-2′,3′-dihydrospiro[imidazolidine-4,1′-inden]-1-yl}-N-[(5-fluoropyridin-2-yl)methyl]-N-[1-methyl-3-(trifluoromethyl)azetidin-3-yl]acetamide] | 10.2 ×10⁻⁶ cm/s | 16.3 ×10⁻⁶ cm/s | 9.2 nM | – | – | – | – | – | – | – | – | – | 14 nM | –
4 | CN1CC(N(Cc2ccc(F)cc2)C(=O)CN2C(=O)N[C@]3(CCc4cc(-c5cnn(C)c5)ccc43)C2=O)(C(F)(F)F)C1 [Example 12, N-[(4-fluorophenyl)methyl]-2-[(1′S)-5′-(1-methyl-1H-pyrazol-4-yl)-2,5-dioxo-2′,3′-dihydrospiro[imidazolidine-4,1′-inden]-1-yl]-N-[1-methyl-3-(trifluoromethyl)azetidin-3-yl]acetamide] | 24 ×10⁻⁶ cm/s | 28.9 ×10⁻⁶ cm/s | 6.3 nM | – | – | 465 ng·h/mL | 35.7 mL/min/kg | 0.97 h | 1.6 L/kg | 1400 ng·h/mL | 1290 ng/mL | 30.0% | 82 nM | –

The remaining compounds from weak to strong by IC50 (recombinant p300), led by results:

Row | Papp at 4 h [1, 3] | Papp at 4 h [1, 4] | IC50 (recombinant p300) | solubility (Solubility test; [5]) | solubility (Solubility test; [6]) | AUC ([2]; intravenous, 1 mg/kg) | clearance ([2]; intravenous, 1 mg/kg) | half-life ([2]; intravenous, 1 mg/kg) | Vd ([2]; intravenous, 1 mg/kg) | AUC ([2]; oral, 10 mg/kg) | Cmax ([2]; oral, 10 mg/kg) | BA ([2]; oral, 10 mg/kg) | Structure (SMILES) | IC50 (G-401 cells) | IC50 (Kuramochi cells)
5 | 29.2 ×10⁻⁶ cm/s | 32 ×10⁻⁶ cm/s | 53.6 nM | – | – | – | – | – | – | – | – | – | CN1CC(N(Cc2ccc(F)cc2)C(=O)CN2C(=O)N[C@]3(CCc4cc(-c5cnn(C)c5F)ccc43)C2=O)(C(F)(F)F)C1 [Example 16, 2-[(1′S)-5′-(5-fluoro-1-methyl-1H-pyrazol-4-yl)-2,5-dioxo-2′,3′-dihydrospiro[imidazolidine-4,1′-inden]-1-yl]-N-[(4-fluorophenyl)methyl]-N-[1-methyl-3-(trifluoromethyl)azetidin-3-yl]acetamide] | 310 nM | –
6 | 16.2 ×10⁻⁶ cm/s | 20.6 ×10⁻⁶ cm/s | 16 nM | – | – | 575 ng·h/mL | 28.6 mL/min/kg | 1.1 h | 1.8 L/kg | 4350 ng·h/mL | 3770 ng/mL | 75.7% | O=C1N[C@]2(CCc3cc(-c4cnn(C5CN(C6COC6)C5)c4)ccc32)C(=O)N1CC(=O)N(Cc1ccc(F)cc1)C1(C(F)(F)F)COC1 [Example 1, N-[(4-fluorophenyl)methyl]-2-[(1′S)-5′-{1-[1-(oxetan-3-yl)azetidin-3-yl]-1H-pyrazol-4-yl}-2,5-dioxo-2′,3′-dihydrospiro[imidazolidine-4,1′-inden]-1-yl]-N-[3-(trifluoromethyl)oxetan-3-yl]acetamide] | 181 nM | –
7 | 25.4 ×10⁻⁶ cm/s | 28.4 ×10⁻⁶ cm/s | 6.1 nM | – | – | 875 ng·h/mL | 17.6 mL/min/kg | 1.75 h | 2.1 L/kg | 7300 ng·h/mL | 3500 ng/mL | 83.4% | O=C1N[C@]2(CCc3cc(-c4cnn(C5CN(C6COC6)C5)c4)ccc32)C(=O)N1CC(=O)N(Cc1ccc(F)cc1)C1(C(F)(F)F)CC(F)(F)C1 [Example 5, N-[3,3-difluoro-1-(trifluoromethyl)cyclobutyl]-N-[(4-fluorophenyl)methyl]-2-[(1'S)-5′-{1-[1-(oxetan-3-yl)azetidin-3-yl]-1H-pyrazol-4-yl}-2,5-dioxo-2′,3′-dihydrospiro[imidazolidine-4,1′-inden]-1-yl]acetamide] | 88 nM | –
8 | 15.4 ×10⁻⁶ cm/s | 26.6 ×10⁻⁶ cm/s | 0.4 nM | > 10000 µg/mL | > 10000 µg/mL | – | – | – | – | – | – | – | CCn1cc(-c2ccc3c(c2)[C@H](F)C[C@]32NC(=O)N(CC(=O)N(Cc3ccc(F)cn3)C3(C(F)(F)F)CN(C)C3)C2=O)cn1 [Example 32, 2-[(1′S,3′R)-5′-(1-ethyl-1H-pyrazol-4-yl)-3′-fluoro-2,5-dioxo-2′,3′-dihydrospiro[imidazolidine-4,1′-inden]-1-yl]-N-[(5-fluoropyridin-2-yl)methyl]-N-[1-methyl-3-(trifluoromethyl)azetidin-3-yl]acetamide] | 5 nM | 53 nM
9 | 22.6 ×10⁻⁶ cm/s | 27 ×10⁻⁶ cm/s | 0.2 nM | 8600 µg/mL (≈ 13.6 mM) | > 10000 µg/mL | – | – | – | – | – | – | – | CC(C)n1cc(-c2ccc3c(c2)[C@H](F)C[C@]32NC(=O)N(CC(=O)N(Cc3ccc(F)cn3)C3(C(F)(F)F)CN(C)C3)C2=O)cn1 [Example 33, 2-{(1′S,3′R)-3′-fluoro-2,5-dioxo-5′-[1-(propan-2-yl)-1H-pyrazol-4-yl]-2′,3′-dihydrospiro[imidazolidine-4,1′-inden]-1-yl}-N-[(5-fluoropyridin-2-yl)methyl]-N-[1-methyl-3-(trifluoromethyl)azetidin-3-yl]acetamide] | 4 nM | 24 nM
